We go through 23 compounds from US8580825B2, “Oxadiazole inhibitors of leukotriene production” (Boehringer Ingelheim International GmbH, priority 2010, dated 2013).

Some results are limits rather than exact numbers.

Assay [1] deals with T1, recombinant human FLAP protein (Homo sapiens, UniProt P20292).
T1 construct: made in house; host or cells: Sf9 insect cells (100,000xg membrane fraction used)
T1 sequence (P20292 1-161): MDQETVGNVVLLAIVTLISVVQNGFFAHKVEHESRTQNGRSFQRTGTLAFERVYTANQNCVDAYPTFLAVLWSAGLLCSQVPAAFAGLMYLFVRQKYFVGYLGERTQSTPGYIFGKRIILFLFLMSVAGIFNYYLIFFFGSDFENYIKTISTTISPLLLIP
Kind of assay: FLAP binding assay (Scintillation Proximity Assay, displacement of [125I]L-691,831). The settings on record: for IC50: read-out: FLAP SPA IC50. Here is the method:
Compounds are assessed for the ability to bind to FLAP in a binding assay that measures compound-specific displacement of an iodinated (^125I) FLAP inhibitor via a Scintillation Proximity Assay format (adapted from S. Charleson et al., Mol. Pharmacol., 1992, 41, 873-879).
Cell pellets produced from sf9 insect cells expressing recombinant human FLAP protein are resuspended in buffer A [15 mM Tris-HCl (pH 7.5), 2 mM MgCl2, 0.3 mM EDTA, 1 mM PMSF]. The cells are lysed with a Dounce homogenizer and the material is centrifuged at 10,000×g for 10 minutes. The supernatant is then collected and centrifuged at 100,000×g for 60 minutes. To prepare membrane protein for an assay, an aliquot of the 100,000×g pellet is resuspended in 1 ml of buffer A, Dounce homogenized, and finally subjected to polytron mixing (30 seconds). Membrane protein (25 μl, 5 μg) is mixed with WGA SPA beads (Amersham) and stirred for 1 h. […] (final concentrations: beads, 200 μg/well; protein, 5 μg/well; [^125I] probe, 0.08 nM/well (17 nCi/well). The plates are shaken for 2 h before reading on a Microbeta plate reader. Non-specific binding is determined by the addition of 10 μM cold L-691,831 compound.
In general terms: In a scintillation proximity assay essentially only radioactivity close to the scintillant gives light.

For assay [2], the system named is synthesis of LTB4 in human whole blood. Put plainly: human whole blood LTB4 production inhibition assay. The class given is cell-based. As to conditions: calcimycin stimulated, read-out: hWB LTB4 IC50. Here is the method:
Compounds are additionally tested in a human whole blood assay to determine their ability to inhibit the synthesis of LTB4 in a cellular system. Compounds are combined with heparinized human whole blood and incubated for 15 minutes at 37° C. Calcimycin (20 μM final, prepared in phosphate-buffered saline, pH 7.4) is then added and the mixture is incubated for another 30 minutes at 37° C. The samples are centrifuged for 5 min at low speed (1500×g) and the plasma layer is removed. Plasma LTB4 concentrations are then measured using an antibody-based homogenous time-resolved fluorescence method (CisBio, Bedford, Mass.).

For orientation: IC50 means the concentration needed to halve the response being measured. The inhibition is the change of the read-out against control, counted positive when it falls.

Regarding `CC(C)[C@@](C)(c1ccc(-c2cnc(N)nc2)nc1)c1noc(-c2cnn(C(C)(C)CO)c2)n1` [Example 35, 2-[4-(3-{(2S)-2-[6-(2-aminopyrimidin-5-yl)pyridin-3-yl]-3-methylbutan-2-yl}-1,2,4-oxadiazol-5-yl)-1H-pyrazol-1-yl]-2-methylpropan-1-ol], the IC50 in assay [1] turned out to be 210 nM; in assay [2], 3200 nM.
For `Cc1ccc(C)n1-c1ncc(-c2ccc(C(C)(c3noc(-c4cn[nH]c4)n3)C(C)C)cn2)cn1` (stereo not shown) [Example 36, 2-(2,5-dimethyl-1H-pyrrol-1-yl)-5-(5-{3-methyl-2-[5-(1H-pyrazol-4-yl)-1,2,4-oxadiazol-3-yl]butan-2-yl}pyridin-2-yl)pyrimidine], in assay [1] (read-out: FLAP SPA inhibition at 1 uM), the inhibition at 1 µM is 30%. The half-inhibitory concentration (IC50) in assay [2] is greater than 5000 nM.
Turning to `CC(C)[C@@](C)(c1ccc(-c2cnc(N)nc2)nc1)c1noc(-c2cnn(CC(C)(C)O)c2)n1` [Example 37, 1-[4-(3-{(2S)-2-[6-(2-aminopyrimidin-5-yl)pyridin-3-yl]-3-methylbutan-2-yl}-1,2,4-oxadiazol-5-yl)-1H-pyrazol-1-yl]-2-methylpropan-2-ol], the IC50 in assay [1] is 168 nM; in assay [2], greater than 5000 nM.
Turning to `CC(C)[C@](C)(c1ccc(-c2cnc(N)nc2)nc1)c1noc(-c2cnn(CC(C)(C)O)c2)n1` [Example 38, 1-[4-(3-{(2R)-2-[6-(2-aminopyrimidin-5-yl)pyridin-3-yl]-3-methylbutan-2-yl}-1,2,4-oxadiazol-5-yl)-1H-pyrazol-1-yl]-2-methylpropan-2-ol], the values for the half-inhibitory concentration (IC50) in assay [1] and in assay [2] were 6.4 nM and 33 nM, respectively.
For the compound `CC(C)C(C)(c1ccc(-c2cnc(N)nc2)nc1)c1noc(-c2cnn(CC(C)(C)C(=O)O)c2)n1` (stereo not shown) [Example 39, 3-[4-(3-{2-[6-(2-aminopyrimidin-5-yl)pyridin-3-yl]-3-methylbutan-2-yl}-1,2,4-oxadiazol-5-yl)-1H-pyrazol-1-yl]-2,2-dimethylpropanoic acid], the IC50 is 20.4 nM in assay [1] and greater than 5000 nM in assay [2].
With `CCNc1cnc(-c2nc([C@](C)(c3ccc(-c4cnc(N)nc4)nc3)C(C)C)no2)cn1` [Example 40, 5-{5-[(2S)-2-{5-[5-(ethylamino)pyrazin-2-yl]-1,2,4-oxadiazol-3-yl}-3-methylbutan-2-yl]pyridin-2-yl}pyrimidin-2-amine], the figures for the IC50 in assay [1] and in assay [2] were 7.9 nM and 100 nM, respectively.
The like results for `CCNc1cnc(-c2nc([C@@](C)(c3ccc(-c4cnc(N)nc4)nc3)C(C)C)no2)cn1` [Example 41, 5-{5-[(2R)-2-{5-[5-(ethylamino)pyrazin-2-yl]-1,2,4-oxadiazol-3-yl}-3-methylbutan-2-yl]pyridin-2-yl}pyrimidin-2-amine] were, in that order, 1.8 nM and 34 nM.
Consider `CCNc1ccc(-c2nc(C(C)(c3ccc(-c4cnc(N)nc4)nc3)C(C)C)no2)nn1` (stereo not shown) [Example 42, 6-(3-{2-[6-(2-aminopyrimidin-5-yl)pyridin-3-yl]-3-methylbutan-2-yl}-1,2,4-oxadiazol-5-yl)-N-ethylpyridazin-3-amine], for which the values for the IC50 in assay [1] and in assay [2] were 8.3 nM and 210 nM, respectively.
Consider `CC(C)[C@](C)(c1ccc(-c2cnc(N)nc2)nc1)c1noc(-c2cn[nH]c2)n1` [Example 43, 5-(5-{(2R)-3-methyl-2-[5-(1H-pyrazol-4-yl)-1,2,4-oxadiazol-3-yl]butan-2-yl}pyridin-2-yl)pyrimidin-2-amine], for which the IC50 was determined as 1.2 nM in assay [1] and 32 nM in assay [2].
The like results for `CC(C)[C@](C)(c1ccc(-c2cnc(N)nc2)nc1)c1noc(-c2cnn(CC(F)F)c2)n1` [Example 44] were, in that order, 0.9 nM and 24 nM.
For `CC(C)[C@@](C)(c1ccc(-c2cnc(N)nc2)nc1)c1noc(-c2cnn(CC(F)F)c2)n1` [Example 45, 5-{5-[(2S)-2-{5-[1-(2,2-difluoroethyl)-1H-pyrazol-4-yl]-1,2,4-oxadiazol-3-yl}-3-methylbutan-2-yl]pyridin-2-yl}pyrimidin-2-amine], in that order: 141 nM and 1400 nM.
Regarding `COCCOCCn1cc(-c2nc([C@@](C)(c3ccc(-c4cnc(N)nc4)nc3)C(C)C)no2)cn1` [Example 46, 5-{5-[(2R)-2-(5-{1-[2-(2-methoxyethoxy)ethyl]-1H-pyrazol-4-yl}-1,2,4-oxadiazol-3-yl)-3-methylbutan-2-yl]pyridin-2-yl}pyrimidin-2-amine], the half-maximal inhibitory concentration (IC50) in assay [1] was 5 nM; in assay [2], 98 nM.
Consider `COCCOCCn1cc(-c2nc([C@](C)(c3ccc(-c4cnc(N)nc4)nc3)C(C)C)no2)cn1` [Example 47, 5-{5-[(2S)-2-(5-{1-[2-(2-methoxyethoxy)ethyl]-1H-pyrazol-4-yl}-1,2,4-oxadiazol-3-yl)-3-methylbutan-2-yl]pyridin-2-yl}pyrimidin-2-amine], for which the half-maximal inhibitory concentration (IC50) in assay [1] is 180 nM; in assay [2] it was 2000 nM.
Turning to `CC(C)[C@](C)(c1ccc(-c2cnc(N)nc2)nc1)c1noc(-c2cnn(CCF)c2)n1` [Example 48, 5-{5-[(2R)-2-{5-[1-(2-fluoroethyl)-1H-pyrazol-4-yl]-1,2,4-oxadiazol-3-yl}-3-methylbutan-2-yl]pyridin-2-yl}pyrimidin-2-amine], the concentration for half-maximal inhibition (IC50) in assay [1] is 2.6 nM; in assay [2], 20 nM.
As to `CC(C)[C@@](C)(c1ccc(-c2cnc(N)nc2)nc1)c1noc(-c2cnn(CCF)c2)n1` [Example 49, 5-{5-[(2S)-2-{5-[1-(2-fluoroethyl)-1H-pyrazol-4-yl]-1,2,4-oxadiazol-3-yl}-3-methylbutan-2-yl]pyridin-2-yl}pyrimidin-2-amine], the IC50 in assay [1] is 80.9 nM; in assay [2], 1100 nM.
Take `Cn1cc(-c2nc(C(C)(c3ccc(-c4cnc(N)nc4)nc3)C3CC3)no2)cn1` (stereo not shown) [Example 50, 5-(5-{1-cyclopropyl-1-[5-(1-methyl-1H-pyrazol-4-yl)-1,2,4-oxadiazol-3-yl]ethyl}pyridin-2-yl)pyrimidin-2-amine]: the half-inhibitory concentration (IC50) turned out to be 9.5 nM in assay [1] and 110 nM in assay [2].
The like results for `CC(C)[C@](C)(c1ccc(-c2cnc(N)nc2)nc1)c1noc(-c2cnc(N3CCNCC3)cn2)n1` [Example 51, 5-{5-[(2R)-3-methyl-2-{5-[5-(piperazin-1-yl)pyrazin-2-yl]-1,2,4-oxadiazol-3-yl}butan-2-yl]pyridin-2-yl}pyrimidin-2-amine] were, in that order, 3 nM and 160 nM.
Take `CC(C)[C@@](C)(c1ccc(-c2cnc(N)nc2)nc1)c1noc(-c2cnc(N3CCNCC3)cn2)n1` [Example 52, 5-{5-[(2S)-3-methyl-2-{5-[5-(piperazin-1-yl)pyrazin-2-yl]-1,2,4-oxadiazol-3-yl}butan-2-yl]pyridin-2-yl}pyrimidin-2-amine]: the IC50 in assay [1] is 14 nM; in assay [2] it was 270 nM.
Regarding `CNC(=O)Cn1cc(-c2nc([C@@](C)(c3ccc(-c4cnc(N)nc4)nc3)C(C)C)no2)cn1` [Example 53, 2-[4-(3-{(2R)-2-[6-(2-aminopyrimidin-5-yl)pyridin-3-yl]-3-methylbutan-2-yl}-1,2,4-oxadiazol-5-yl)-1H-pyrazol-1-yl]-N-methylacetamide], the IC50 is 12.7 nM in assay [1] and 230 nM in assay [2].
The like results for `CNC(=O)Cn1cc(-c2nc([C@](C)(c3ccc(-c4cnc(N)nc4)nc3)C(C)C)no2)cn1` [Example 54, 2-[4-(3-{(2S)-2-[6-(2-aminopyrimidin-5-yl)pyridin-3-yl]-3-methylbutan-2-yl}-1,2,4-oxadiazol-5-yl)-1H-pyrazol-1-yl]-N-methylacetamide] were, in that order, 70.7 nM and 750 nM.
For the compound `COCCN(C)c1cnc(-c2nc([C@@](C)(c3ccc(-c4cnc(N)nc4)nc3)C(C)C)no2)cn1` [Example 55, 5-{5-[(2R)-2-(5-{5-[(2-methoxyethyl)(methyl)amino]pyrazin-2-yl}-1,2,4-oxadiazol-3-yl)-3-methylbutan-2-yl]pyridin-2-yl}pyrimidin-2-amine], the results for the half-maximal inhibitory concentration (IC50) in assay [1] and in assay [2] were 2.5 nM and 46 nM, respectively.
The like results for `COCCN(C)c1cnc(-c2nc([C@](C)(c3ccc(-c4cnc(N)nc4)nc3)C(C)C)no2)cn1` [Example 56, 5-{5-[(2S)-2-(5-{5-[(2-methoxyethyl)(methyl)amino]pyrazin-2-yl}-1,2,4-oxadiazol-3-yl)-3-methylbutan-2-yl]pyridin-2-yl}pyrimidin-2-amine] were, in that order, 11.8 nM and 230 nM.
As for `Cn1cc(-c2nc([C@@](C)(c3ccc(-c4cnc(N)nc4)nc3)C3CC3)no2)cn1` [Example 57, 5-(5-{(1R)-1-cyclopropyl-1-[5-(1-methyl-1H-pyrazol-4-yl)-1,2,4-oxadiazol-3-yl]ethyl}pyridin-2-yl)pyrimidin-2-amine], the IC50 worked out at 16 nM in assay [1] and 33 nM in assay [2].
